Assay results as given in patent US20060079696A1, “Substituted compounds derived from N-(benzyl)phenylacetamide, preparation and uses” (GENFIT, priority 2004, published 2006).

Assays:
Format in all cases: cell-based
hPPARγ = biological target: T1, hPPARγ (Homo sapiens, UniProt P37231); test: Gal4-hPPARγ chimera transactivation in COS-7 cells (luciferase); conditions: induction factor standardised to an internal reference, read-out: % hGal4-PPAR transactivation (10 μM) gamma
T1 construct: fragments of DNA amplified by PCR corresponding to the DEF domains of the human PPARα, PPARγ PPARδ nuclear receptors; expressed in transfected cells; host or cells: COS-7 (monkey kidney fibroblast line)
T1 sequence (P37231 238-503 limits assumed): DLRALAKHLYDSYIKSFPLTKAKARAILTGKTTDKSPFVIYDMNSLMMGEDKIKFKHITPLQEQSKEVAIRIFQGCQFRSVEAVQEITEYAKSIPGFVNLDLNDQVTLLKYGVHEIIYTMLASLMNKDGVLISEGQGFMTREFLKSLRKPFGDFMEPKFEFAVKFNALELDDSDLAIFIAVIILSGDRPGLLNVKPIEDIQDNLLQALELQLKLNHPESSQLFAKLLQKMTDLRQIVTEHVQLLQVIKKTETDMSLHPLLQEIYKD
Method: (§1) The PPAR activation was evaluated in vitro on a monkey kidney fibroblast line (COS-7) by measuring the transcriptional activity of chimeras constituted of the DNA binding domain of the Gal4 transcription factor of yeast and of the binding domain to the ligand of the different PPARs. The compounds were tested at doses between 0.01 and 100 μM on Gal4-PPARα, γ, δ chimeras. The induction factor (ratio between the luminescence induced by the compound and the luminescence induced by the control) was measured for each condition: the higher this factor, the more the compound has PPAR-activating properties.
(§2) The COS-7 cells from ATCC were cultivated in a DMEM medium supplemented with 10% (vol/vol) of foetal calf serum, 100 U/ml penicillin (Gibco, Paisley, UK) and 2 mM L-Glutamine (Gibco, Paisley, UK). The cells were incubated at 37° C. in a humid atmosphere containing 5% CO2.
(§3) The Gal4(RE)_TkpGL3, pGal4-hPPARα, pGal4-hPPARγ, pGal4-hPPARδ and pGal4-φ plasmids have been described in the literature (Raspe, Madsen et al. 1999). The pGal4-hPPARα, pGal4-hPPARγ and pGal4-hPPARδ constructs were obtained by cloning in the pGal4-φ vector of fragments of DNA amplified by PCR corresponding to the DEF domains of the human PPARα, PPARγ PPARδ nuclear receptors.
(§4) COS-7 cells were plated in 96 wells plates (5×10^4 cells/well) and transfected, in the presence of 10% foetal calf serum and 150 ng DNA per well, with a pGal4-PPAR/Gal4(RE)_TkpGL3 ratio of 1/10. The cells were then incubated for 24 hours with the compounds to be tested, without serum. At the end of the experiment, the cells were lysed and the luciferase activities were determined by means of Steady Glow Luciferase (Promega) according to the supplier's recommendations.
(§5) The inventive compounds were tested at 10 μM on the 3 PPAR isoforms. The results obtained are detailed in table (1). The transactivation measured is expressed as a response ratio versus an internal reference for each of the isoforms.
(§6) The compounds were tested at 10 μM on the Gal4-PPARα, γ, δ chimeras. The induction factor, i.e. the ratio between the luminescence induced by the compound and the luminescence induced by the control, was measured for each condition. It was then standardised in comparison to an internal reference and the results were then expressed in percentages : the higher the activation percentage, the more the compound has PPAR-activating properties.

hPPARα = biological target: T2, hPPARα (Homo sapiens, UniProt Q07869); test: Gal4-hPPARα chimera transactivation in COS-7 cells (luciferase); conditions: induction factor standardised to an internal reference, read-out: % hGal4-PPAR transactivation (10 μM) alpha
T2 construct: fragments of DNA amplified by PCR corresponding to the DEF domains of the human PPARα, PPARγ PPARδ nuclear receptors; expressed in transfected cells; host or cells: COS-7 (monkey kidney fibroblast line)
T2 sequence (Q07869 239-466 limits assumed): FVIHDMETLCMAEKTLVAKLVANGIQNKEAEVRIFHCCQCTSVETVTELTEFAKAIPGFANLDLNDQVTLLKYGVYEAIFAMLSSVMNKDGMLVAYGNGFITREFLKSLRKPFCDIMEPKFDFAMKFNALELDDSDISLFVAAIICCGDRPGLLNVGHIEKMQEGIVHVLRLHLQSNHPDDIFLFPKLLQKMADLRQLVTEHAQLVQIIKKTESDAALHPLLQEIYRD
Method: as §1, §2, §3, §4, §5, §6

hPPARδ = biological target: T3, hPPARδ (Homo sapiens, UniProt Q03181); test: Gal4-hPPARδ chimera transactivation in COS-7 cells (luciferase); conditions: induction factor standardised to an internal reference, read-out: % hGal4-PPAR transactivation (10 μM) delta
T3 construct: fragments of DNA amplified by PCR corresponding to the DEF domains of the human PPARα, PPARγ PPARδ nuclear receptors; expressed in transfected cells; host or cells: COS-7 (monkey kidney fibroblast line)
T3 sequence (Q03181 211-439 limits assumed): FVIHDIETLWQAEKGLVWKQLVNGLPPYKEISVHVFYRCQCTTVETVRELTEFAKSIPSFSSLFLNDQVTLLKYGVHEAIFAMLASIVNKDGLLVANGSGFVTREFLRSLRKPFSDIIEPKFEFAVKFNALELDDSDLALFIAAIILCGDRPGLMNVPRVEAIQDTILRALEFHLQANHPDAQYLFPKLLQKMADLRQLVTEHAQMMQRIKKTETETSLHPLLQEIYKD
Method: as §1, §2, §3, §4, §5, §6

Row | Compound | activation at 10 µM (hPPARγ) [%] | activation at 10 µM (hPPARα) [%] | activation at 10 µM (hPPARδ) [%]
1 | CC(NC(=O)Cc1ccc(OC(C)(C)C(=O)O)cc1)c1ccccc1N1CCCCC1 (stereo not drawn) [Compound 2, 2-[4-[1-(1-(2-(1-piperidinyl)phenyl)ethyl)aminocarbonylmethyl]phenoxy]-2-methylpropanoic acid] | 27 | < 10 | < 10
2 | CCCCCCC(NC(=O)Cc1ccc(OC(C)(C)C(=O)O)cc1)c1ccccc1N1CCCCC1 (stereo not drawn) [Compound 5, 2-[4-[1-(1-(2-(1-piperidinyl)phenyl)heptyl)aminocarbonylmethyl]phenoxy]-2-methylpropanoic acid] | 82 | 31 | < 10
3 | Cc1cc(CC(=O)NC(CC(C)C)c2ccccc2N2CCCCC2)cc(C)c1OC(C)(C)C(=O)O (stereo not drawn) [Compound 11, 2-[2,6-dimethyl-4-[1-(3-methyl-1-(2-(1-piperidinyl)phenyl)butyl)aminocarbonylmethyl]phenoxy]-2-methylpropanoic acid] | 47 | < 10 | < 10
4 | CC(NC(=O)Cc1ccc(OC(C)(C)C(=O)O)cc1)c1ccccc1N1CCCCCC1 (stereo not drawn) [Compound 15, 2-[4-[1-(1-(2-(1-hexamethyleneimino)phenyl)ethyl)aminocarbonylmethyl]phenoxy]-2-methylpropanoic acid] | 42 | < 10 | < 10
5 | CCCCC(NC(=O)Cc1ccc(OC(C)(C)C(=O)O)cc1)c1ccc(-n2ccc3ccccc32)cc1N1CCCCC1 (stereo not drawn) [Compound 38, 2-[4-[1-(1-(2-(1-piperidinyl)-4-(1H-indolyl)phenyl)pentyl)aminocarbonylmethyl]phenoxy]-2-methylpropanoic acid] | < 10 | 13 | 18
6 | CC(C)CC(NC(=O)Cc1ccc(OCCCCOc2ccc(OC(C)(C)C(=O)O)cc2)cc1)c1ccccc1N1CCCCC1 (stereo not drawn) [Compound 40, 2-{4-{4-[4-[1-(3-methyl-1-(2-(1-piperidinyl)phenyl)butyl)aminocarbonylmethyl]phenoxy]butoxy}phenoxy}-2-methylpropanoic acid] | 55 | 20 | < 10
7 | CCCCC(NC(=O)Cc1ccc(OCC(C)(C)C(=O)O)cc1)c1ccccc1N1CCCCC1 (stereo not drawn) [Compound 42, 3-[4-[1-(1-(2-(1-piperidinyl)phenyl)pentyl)aminocarbonylmethyl]phenoxy]-2,2-dimethylpropanoic acid] | < 10 | 32 | < 10
8 | CCCCC(NC(=O)Cc1ccc(OC(C)(C)C(=O)O)cc1)c1ccccc1N1C[C@H](C)C[C@H](C)C1 (stereo partly drawn) [Compound 43, 2-[4-[1-(1-(2-((3S,5R)-3,5-dimethylpiperidine-1-yl)phenyl)pentyl)aminocarbonylmethyl]phenoxy]-2-methylpropanoic acid] | 18 | 27 | < 10
9 | CCN(CCCC(C)(C)C(=O)O)c1ccc(CC(=O)NC(CC(C)C)c2ccccc2N2CCCCC2)cc1 (stereo not drawn) [Compound 46, 5-{N-ethyl-N-[4-[1-(3-methyl-1-(2-(1-piperidinyl)phenyl)butyl)aminocarbonylmethyl]phenyl]amino}-2,2-dimethylpentanoic acid] | 12 | 58 | < 10
10 | CCCCC(NC(=O)Cc1ccc(OCCCC(Cl)(Cl)C(=O)O)cc1)c1ccccc1N1CCCCC1 (stereo not drawn) [Compound 47, 5-[4-[1-(1-(2-(1-piperidinyl)phenyl)pentyl)aminocarbonylmethyl]phenoxy]-2,2-dichloropentanoic acid] | < 10 | 42 | < 10
11 | COc1ccc(CC(NC(=O)Cc2ccc(OC(C)(C)C(=O)O)cc2)c2ccccc2N2CCCCC2)cc1 (stereo not drawn) [Compound 48, 2-[4-[1-(2-(4-methoxyphenyl)-1-(2-(1-piperidinyl)phenyl)ethyl)aminocarbonylmethyl]phenoxy]-2-methylpropanoic acid] | 17 | < 10 | < 10
12 | CCCCC(NC(=O)Cc1ccc(OC(C)(C)C(=O)O)cc1)c1ccc(CCc2ccccc2)cc1N1CCCCC1 (stereo not drawn) [Compound 50, 2-[4-[1-(1-(2-(1-piperidinyl)-4-(phenethyl)phenyl)pentyl)aminocarbonylmethyl]phenoxy]-2-methylpropanoic acid] | < 10 | < 10 | 11
13 | CCCC(NC(=O)Cc1ccc(OC(C)(C)C(=O)NS(C)(=O)=O)cc1)c1ccccc1N1CCCCC1 (stereo not drawn) [Compound 66, N-[methylsulfonyl]-2-[4-[1-(1-(2-(1-piperidinyl)phenyl)butyl)aminocarbonylmethyl]phenoxy]-2-methylpropanamide] | < 10 | 40 | < 10
14 | CCCCC(NC(=O)Cc1ccc(OC(C)(C)C(=O)NS(C)(=O)=O)cc1)c1ccccc1OC (stereo not drawn) [Compound 67, N-[methylsulfonyl]-2-[4-[1-(1-(2-(methoxy)phenyl)pentyl)aminocarbonylmethyl]phenoxy]-2-methylpropanamide] | < 10 | < 10 | < 10
15 | CCCCC(NC(=O)Cc1ccc(OC(C)(C)C(=O)O)cc1)c1ccccc1OCC(C)C (stereo not drawn) [Compound 68, 2-[4-[1-(1-(2-(isobutyloxy)phenyl)pentyl)aminocarbonylmethyl]phenoxy]-2-methylpropanoic acid] | 37 | < 10 | < 10
16 | CCCCC(NC(=O)Cc1ccc(OCc2nnn[nH]2)cc1)c1ccccc1N1CCCCC1 (stereo not drawn) [Compound 70, 2-(4-((1H-tetrazol-5-yl)methoxy)phenyl)-N-[1-(1-(2-(1-piperidinyl)phenyl)pentyl)]acetamide] | 13 | < 10 | < 10
17 | CCCCC(NC(=O)Cc1ccc(OC(C)(C)C(=O)O)c(OC)c1)c1ccccc1N1CCCCC1 (stereo not drawn) [Compound 73, 2-[2-methoxy-4-[1-(1-(2-(1-piperidinyl)phenyl)pentyl)aminocarbonylmethyl]phenoxy]-2-methylpropanoic acid] | 42 | < 10 | < 10
